{"source": "ChEMBL document CHEMBL2396653", "about": "“Synthesis and antimycobacterial evaluation of N-substituted 5-chloropyrazine-2-carboxamides” (Bioorg Med Chem Lett, 2013)", "key": {"[1]": {"tested_on": "Mycobacterium tuberculosis variant bovis", "assay": "Antimycobacterial activity against pyrazinamide-resistant Mycobacterium bovis ATCC 35720 assessed as growth inhibition after 24 hrs to 2 weeks by microbroth dilution method", "format": "functional"}, "[2]": {"tested_on": "Mycobacterium tuberculosis variant bovis", "assay": "Antimycobacterial activity against pyrazinamide-resistant Mycobacterium bovis ATCC 27289 assessed as growth inhibition after 24 hrs to 2 weeks by microbroth dilution method", "format": "functional"}}, "data": [{"smiles": "NC(=O)c1cnc(Cl)cn1", "values": [{"measurement": "MIC", "setting": "[1]", "result": 8, "unit": "mg/L"}, {"measurement": "MIC", "setting": "[2]", "result": 8, "unit": "mg/L"}]}]}
